Experimental data as given in patent US12595267B2, “Preparation method for amide compound and application thereof in field of medicine” (Shanghai Synergy Pharmaceutical Sciences Co., Ltd., priority 2019, dated 2026).
Like-named read-outs stand apart in the source and are kept apart here.

Experiments:
[1] = Pharmacokinetics experiment in rats; assay type: in vivo; details: rat, plasma, male SD rats; for bioavailability: oral 20 mg/kg vs intravenous 4 mg/kg, read-out: Bioavailability (F %); for AUC: read-out: Area under the curve (AUC); for half-life: read-out: Half life (T1/2) (converted); for Cmax: read-out: Blood drug level (Cmax)
Description: Male SD rats weighing 200-300 g and 8 weeks old were used as experimental animals. […] The pharmacokinetic behavior of the compound of the present invention in rats was studied, and the pharmacokinetic characteristics thereof were evaluated.
A certain amount of the compound was weighed, dissolved in 0.10% tween for vortex and ultrasound, and then 0.5% sodium carboxymethyl cellulose (CMC-Na) solution was added to prepare a uniform solution.
The above-mentioned compounds were applied intravenously and orally to rats at a dose of 4 mg/kg and a dose of 20 mg/kg, respectively. At 0.083 h, 0.25 h, 0.5 h, 1.0 h, 2.0 h, 4.0 h, 6.0 h, 8.0 h, 12.0 h, and 24.0 h after application, 0.2 mL of blood was collected from the orbit, and placed in an anticoagulant tube, which was centrifuged at 6000 rpm for 10 minutes at 4° C. The plasma was separated and stored at −80° C.

[2] = test system: WSU-DLCL2 cell mouse xenograft tumor model; experiment: Pharmacodynamic experiment in WSU-DLCL2 mouse xenograft tumor model; assay type: in vivo; details: CB17/SCID mice
Description: A certain amount of the compound was weighed, dissolved in 0.1% tween for vortex and ultrasound, and then 0.5% sodium carboxymethyl cellulose (CMC-Na) solution was added to prepare a uniform solution.
(§1) By observing under a microscope, it was confirmed that the cells are in good condition. The cells were transferred to a 15 mL centrifuge tube, which was centrifuged at 1000 rpm for 5 minutes.

WSU-DLCL2 cells = experiment: Calcein AM proliferation assay, WSU-DLCL2 cells; assay type: cell-based, human; details: read-out: WSU-DLCL2 proliferation IC50
Description: as §1
Gradient dilutions of the compounds in DMSO were performed, and a compound plate with a final concentration of 500-fold was prepared. 1.2 μL of 500× compound was pipetted, transferred to 200 μL medium, and pipetted to mix well to obtain a 3× compound intermediate plate. 50 μL 3× compound is pipetted and added to the cell plate according to the set arrangement.
The cells of the above concentration were inoculated in 96-well plates, 100 μL/well (the number of cells in each well is 10,000). The cell plate was placed in a carbon dioxide incubator for 4 days. The cell plate was taken out. After mixed uniformly, a certain volume of cell suspension was drawn, and stained with Calcein AM. The number of cells in each well was counted with Acumen. According to the number of detected cells, 10,000 cells were re-inoculated in 96-well plates. As above, the compound was added. After placed in a carbon dioxide incubator for 3 days (day 7). The cell plate was taken out again. After mixed uniformly, a certain volume of cell suspension was drawn, stained with Calcein AM. The number of cells in each well was counted with Acumen. The cells were cultured for another 4 days (day 11), and the cell plate was taken out for the third time. After mixed uniformly, a certain volume of cell suspension was drawn, and stained with Calcein AM. The number of cells in each well was counted with Acumen. According to the number of detected cells, 10,000 cells were re-inoculated in 96-well plates. As above, the compound was added. […] After Calcein AM staining, the number of the cells was counted to obtain the final count result. The data of day 14 was processed to obtain the corresponding half-inhibitory concentration (IC50).
Using GraphPad Prism 5 software, a non-linear regression model was used to draw the S-type dose-survival rate curve and to calculate the IC50 value.

Pfeiffer cells = experiment: Calcein AM proliferation assay, Pfeiffer cells; assay type: cell-based, human; details: read-out: Pfeiffer proliferation IC50
Karpas 422 cells = experiment: Calcein AM proliferation assay, Karpas 422 cells; assay type: cell-based, human; details: read-out: Karpas422 proliferation IC50
Mutant EZH2 (Y641N) = biological target: T1, Mutant EZH2 (Y641N) (Homo sapiens, UniProt Q15910, Y641N); experiment: AlphaLISA assay on mutant PRC2 complex, EZH2 Y641N; assay type: biochemical
T1 construct: purchased BPS 51004
Description: Detection Method: AlphaLISA
(§2) Finally, 15 μl detection solution mixture was added under low light, and incubated at room temperature for 60 minutes, and read the value.

Mutant EZH2 (Y641F) = biological target: T2, Mutant EZH2 (Y641F) (Homo sapiens, UniProt Q15910, Y641F); experiment: AlphaLISA assay on mutant PRC2 complex, EZH2 Y641F; assay type: biochemical
T2 construct: purchased BPS 51004
Description: Detection Method: AlphaLISA
as §2

Mutant EZH2 (A677G) = biological target: T3, Mutant EZH2 (A677G) (Homo sapiens, UniProt Q15910, A677G); experiment: AlphaLISA assay on mutant PRC2 complex, EZH2 A677G; assay type: biochemical
T3 construct: purchased BPS 51004
Description: Detection Method: AlphaLISA
as §2

wild-type EZH2 = wild-type EZH2 (Homo sapiens, UniProt Q15910); experiment: Radiometric assay of activity on wild-type PRC2 EZH2
Description: 10 microliters (μL) of the compound of the test example and wild-type EZH2 were added to each well. After being incubated at room temperature for 15 minutes, peptides and [3H]-labeled methyl donor S-adenosylmethionine (SAM) were added. After reacting at room temperature for 1 hour (h), cold SAM was added to terminate the reaction. 25 μl reaction solution was transferred to the scintillation plate. After incubating for 1 hour (h) at room temperature, the plate was washed three times with deionized water and 0.1% Tween 20. The value was read with a PerkinElmer liquid scintillation/luminescence counter, and the half inhibitory concentration (IC50) of the compound was calculated with the Prism 5 software (GraphPad Prism 5).

[3] = 150 mg/kg gastric irrigation, 21 days
[4] = Homo sapiens, WSUDLCL2, day 14 data, Calcein AM staining
[5] = Homo sapiens, Pfeiffer, day 14 data, Calcein AM staining
[6] = Homo sapiens, KARPAS-422, day 14 data, Calcein AM staining
[7] = day 14 data, Calcein AM staining

T2 sequence (Q15910 whole entry Y641F): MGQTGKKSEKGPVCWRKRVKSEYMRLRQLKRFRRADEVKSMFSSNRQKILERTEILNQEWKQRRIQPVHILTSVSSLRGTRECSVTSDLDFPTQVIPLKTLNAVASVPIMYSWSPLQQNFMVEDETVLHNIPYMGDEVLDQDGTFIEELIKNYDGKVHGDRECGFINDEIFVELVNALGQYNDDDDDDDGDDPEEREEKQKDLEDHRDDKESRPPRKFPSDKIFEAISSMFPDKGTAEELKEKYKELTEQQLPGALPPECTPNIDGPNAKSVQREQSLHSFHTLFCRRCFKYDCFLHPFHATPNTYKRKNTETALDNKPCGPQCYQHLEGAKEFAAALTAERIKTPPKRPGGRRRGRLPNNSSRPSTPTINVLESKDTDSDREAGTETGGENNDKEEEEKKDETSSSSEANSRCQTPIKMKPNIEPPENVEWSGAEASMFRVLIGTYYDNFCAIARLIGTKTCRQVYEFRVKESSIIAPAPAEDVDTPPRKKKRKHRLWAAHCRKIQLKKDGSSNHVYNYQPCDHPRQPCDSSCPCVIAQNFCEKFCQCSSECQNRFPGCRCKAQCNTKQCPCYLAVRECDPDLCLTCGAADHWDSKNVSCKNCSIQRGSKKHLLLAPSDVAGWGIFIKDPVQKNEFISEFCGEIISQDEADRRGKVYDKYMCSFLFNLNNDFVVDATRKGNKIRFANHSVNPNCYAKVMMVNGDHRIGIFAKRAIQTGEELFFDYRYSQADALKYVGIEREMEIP
T2 sequence (O75530 whole entry partner): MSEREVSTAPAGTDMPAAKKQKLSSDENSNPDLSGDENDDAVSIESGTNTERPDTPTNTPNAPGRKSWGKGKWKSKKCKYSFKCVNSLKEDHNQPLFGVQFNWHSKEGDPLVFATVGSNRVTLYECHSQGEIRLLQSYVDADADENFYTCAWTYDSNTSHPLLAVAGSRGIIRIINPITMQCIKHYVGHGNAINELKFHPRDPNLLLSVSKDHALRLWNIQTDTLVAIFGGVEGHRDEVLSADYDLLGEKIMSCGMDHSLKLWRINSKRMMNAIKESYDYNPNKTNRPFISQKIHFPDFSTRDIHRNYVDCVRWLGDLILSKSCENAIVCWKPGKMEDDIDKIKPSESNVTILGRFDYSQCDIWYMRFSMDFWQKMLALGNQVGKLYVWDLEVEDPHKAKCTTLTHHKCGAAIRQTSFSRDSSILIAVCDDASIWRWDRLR
T2 sequence (Q15022 whole entry partner): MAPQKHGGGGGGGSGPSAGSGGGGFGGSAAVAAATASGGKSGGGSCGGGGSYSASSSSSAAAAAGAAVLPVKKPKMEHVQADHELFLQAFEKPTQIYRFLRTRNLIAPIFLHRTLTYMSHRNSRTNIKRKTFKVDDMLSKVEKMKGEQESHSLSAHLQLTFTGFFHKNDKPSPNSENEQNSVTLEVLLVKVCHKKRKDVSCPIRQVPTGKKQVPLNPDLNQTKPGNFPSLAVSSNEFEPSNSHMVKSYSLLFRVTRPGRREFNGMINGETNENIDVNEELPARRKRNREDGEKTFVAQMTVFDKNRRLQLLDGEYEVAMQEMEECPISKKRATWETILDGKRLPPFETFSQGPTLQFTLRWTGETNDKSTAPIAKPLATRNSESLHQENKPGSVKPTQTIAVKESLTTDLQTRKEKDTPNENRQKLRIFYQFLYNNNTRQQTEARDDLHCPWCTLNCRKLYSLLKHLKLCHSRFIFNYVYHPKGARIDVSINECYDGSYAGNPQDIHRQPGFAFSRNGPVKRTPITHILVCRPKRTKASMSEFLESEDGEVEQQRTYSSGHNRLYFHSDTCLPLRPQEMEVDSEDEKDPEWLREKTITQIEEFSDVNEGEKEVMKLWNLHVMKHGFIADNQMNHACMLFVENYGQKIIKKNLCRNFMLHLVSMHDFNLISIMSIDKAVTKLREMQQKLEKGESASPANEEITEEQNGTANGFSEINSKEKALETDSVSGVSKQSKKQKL
T2 sequence (Q09028 whole entry partner): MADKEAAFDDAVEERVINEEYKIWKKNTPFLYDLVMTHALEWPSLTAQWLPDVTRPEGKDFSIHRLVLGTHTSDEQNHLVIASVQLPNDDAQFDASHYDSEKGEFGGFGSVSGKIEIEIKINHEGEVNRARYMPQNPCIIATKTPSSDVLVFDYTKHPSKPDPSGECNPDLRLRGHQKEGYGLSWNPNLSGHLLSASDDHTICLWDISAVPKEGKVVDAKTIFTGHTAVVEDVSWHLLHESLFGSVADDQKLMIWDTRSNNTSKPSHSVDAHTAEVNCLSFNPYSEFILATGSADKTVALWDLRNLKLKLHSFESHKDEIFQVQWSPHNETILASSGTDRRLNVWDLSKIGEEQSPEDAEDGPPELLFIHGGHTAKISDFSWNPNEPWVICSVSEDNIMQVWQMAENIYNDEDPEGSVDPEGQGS
T2 sequence (Q6ZN18 whole entry partner): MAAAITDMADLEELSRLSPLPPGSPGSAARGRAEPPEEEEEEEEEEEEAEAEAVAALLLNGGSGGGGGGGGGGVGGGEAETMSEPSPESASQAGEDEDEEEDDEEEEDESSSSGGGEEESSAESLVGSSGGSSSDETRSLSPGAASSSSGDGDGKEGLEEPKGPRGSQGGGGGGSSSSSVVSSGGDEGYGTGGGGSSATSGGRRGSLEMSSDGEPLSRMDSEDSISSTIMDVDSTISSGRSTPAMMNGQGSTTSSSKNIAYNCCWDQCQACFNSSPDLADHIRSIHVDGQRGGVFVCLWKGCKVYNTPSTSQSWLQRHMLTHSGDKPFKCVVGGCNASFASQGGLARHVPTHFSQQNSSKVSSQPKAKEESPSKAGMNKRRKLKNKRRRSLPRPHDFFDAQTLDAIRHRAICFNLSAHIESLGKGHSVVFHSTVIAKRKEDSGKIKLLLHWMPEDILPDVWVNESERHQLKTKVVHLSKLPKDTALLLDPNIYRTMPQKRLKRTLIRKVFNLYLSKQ
T3 sequence (Q15910 whole entry A677G): as the sequence (Q15910 whole entry Y641F) above, with F641Y, A677G counted along it
T3 sequence (O75530 whole entry partner): as the sequence (O75530 whole entry partner) above
T3 sequence (Q15022 whole entry partner): as the sequence (Q15022 whole entry partner) above
T3 sequence (Q09028 whole entry partner): as the sequence (Q09028 whole entry partner) above
T3 sequence (Q6ZN18 whole entry partner): as the sequence (Q6ZN18 whole entry partner) above
Sequence of wild-type EZH2 (Q15910 whole entry): as the sequence (Q15910 whole entry Y641F) above, with F641Y counted along it
Sequence of wild-type EZH2 (O75530 whole entry partner): as the sequence (O75530 whole entry partner) above
Sequence of wild-type EZH2 (Q15022 whole entry partner): as the sequence (Q15022 whole entry partner) above
Sequence of wild-type EZH2 (Q09028 whole entry partner): as the sequence (Q09028 whole entry partner) above
T1 sequence (Q15910 whole entry Y641N): as the sequence (Q15910 whole entry Y641F) above, with F641N counted along it
T1 sequence (O75530 whole entry partner): as the sequence (O75530 whole entry partner) above
T1 sequence (Q15022 whole entry partner): as the sequence (Q15022 whole entry partner) above
T1 sequence (Q09028 whole entry partner): as the sequence (Q09028 whole entry partner) above
T1 sequence (Q6ZN18 whole entry partner): as the sequence (Q6ZN18 whole entry partner) above

| bioavailability [1] | AUC ([1]; intravenous dosing 4 mg/kg) | half-life ([1]; intravenous dosing 4 mg/kg) | AUC ([1]; oral dosing 20 mg/kg) | Cmax ([1]; oral dosing 20 mg/kg) | IC50 (Mutant EZH2 (Y641N)) | IC50 (Mutant EZH2 (Y641F)) | IC50 (Karpas 422 cells; [6]) | IC50 (Mutant EZH2 (A677G)) | IC50 (wild-type EZH2) | IC50 (Karpas 422 cells; [7]) | Compound | tumor growth inhibition [2, 3] | IC50 (WSU-DLCL2 cells; Homo sapiens, WSUDLCL2, […]) | IC50 (Pfeiffer cells; Homo sapiens, Pfeiffer, […]) | IC50 (Karpas 422 cells; Homo sapiens, KARPAS-422, […]) | IC50 (WSU-DLCL2 cells; [4]) | IC50 (Pfeiffer cells; [5]) | tumor growth inhibition ([2]; 50 mg/kg abdominal, once a day for 21 days) | IC50 (WSU-DLCL2 cells; [7]) | IC50 (Pfeiffer cells; [7]) |
| --- | --- | --- | --- | --- | --- | --- | --- | --- | --- | --- | --- | --- | --- | --- | --- | --- | --- | --- | --- | --- |
| – | – | – | – | – | 0.3 nM | – | 2.7 nM | 0.5 nM | 0.91 nM | – | CCN(c1cc(-c2cc3c(cc2F)C(N2CCOCC2)CC3)c(F)c(C(=O)NCc2c(C)cc(C)[nH]c2=O)c1C)C1CCOCC1 (centres unmarked) [Compound 28] | – | – | – | – | 3.47 nM | 1.53 nM | – | – | – |
| – | – | – | – | – | – | – | 1.99 nM | – | – | – | CCN(c1cc(-c2ccc3c(c2)CCN3C2CCOCC2)cc(C(=O)NCc2c(C)cc(C)[nH]c2=O)c1C)C1CCOCC1 [Compound 29, N-((4,6-dimethyl-2-oxo-1,2-dihydropyridin-3-yl)methyl)-3-(ethyl (tetrahydro-2H-pyran-4-yl)amino)-2-methyl-5-(1-(1-tetrahydro-2H-pyran-4-yl)indolin-5-yl)benzamide] | 78% | – | – | – | 2.18 nM | 1.42 nM | – | – | – |
| – | – | – | – | – | – | – | – | – | – | 20.3 nM | CC[C@H](C)n1cc(C)c2c(C(=O)NCc3c(C)cc(C)[nH]c3=O)cc(-c3ccc(N4CCNCC4)nc3)cc21 [GSK126, reference compound] | – | – | – | – | – | – | 61% | 34.1 nM | 12.2 nM |

Second part, the compound before the results:

| Compound | bioavailability [1] | AUC ([1]; intravenous dosing 4 mg/kg) | half-life ([1]; intravenous dosing 4 mg/kg) | AUC ([1]; oral dosing 20 mg/kg) | Cmax ([1]; oral dosing 20 mg/kg) | IC50 (Mutant EZH2 (Y641N)) | IC50 (Mutant EZH2 (Y641F)) | IC50 (Karpas 422 cells; [6]) | IC50 (Mutant EZH2 (A677G)) | IC50 (wild-type EZH2) | IC50 (Karpas 422 cells; [7]) | tumor growth inhibition [2, 3] | IC50 (WSU-DLCL2 cells; Homo sapiens, WSUDLCL2, […]) | IC50 (Pfeiffer cells; Homo sapiens, Pfeiffer, […]) | IC50 (Karpas 422 cells; Homo sapiens, KARPAS-422, […]) | IC50 (WSU-DLCL2 cells; [4]) | IC50 (Pfeiffer cells; [5]) | tumor growth inhibition ([2]; 50 mg/kg abdominal, once a day for 21 days) | IC50 (WSU-DLCL2 cells; [7]) | IC50 (Pfeiffer cells; [7]) |
| --- | --- | --- | --- | --- | --- | --- | --- | --- | --- | --- | --- | --- | --- | --- | --- | --- | --- | --- | --- | --- |
| CCN(c1cc(-c2ccc3c(c2)CCC3N2CCOCC2)c(Cl)c(C(=O)NCc2c(OC)cc(C)[nH]c2=O)c1C)C1CCOCC1 (centres unmarked) [Compound 12, 2-chloro-5-(ethyl(tetrahydro-2H-pyran-4-yl)amino)-N-((4-methoxy-6-methyl-2-carbonyl-1,2-dihydropyridin-3-yl)methyl)-6-methyl-3-(1-morpholino-2,3-dihydro-1H-inden-5-yl)benzamide] | 27.4% | 956 ng·h/mL | 1.42 h | 1310 ng·h/mL | 480 ng/mL | – | – | – | – | – | – | 85% | 2.36 nM | 1.69 nM | 1.84 nM | – | – | – | – | – |
| CCN(c1cc(N2Cc3ccccc3C2)cc(C(=O)NCc2c(C)cc(C)[nH]c2=O)c1C)C1CCOCC1 [Compound 15, N-4,6-((dimethyl-2-oxo-1,2-dihydropyridin-3-yl)methyl)-3-(ethyl (tetrahydro-2H-pyran-4-yl)amino)-5-(5-isoindolin-2-yl)-2-methylbenzamide] | 34.5% | 893 ng·h/mL | 1.42 h | 1540 ng·h/mL | 500 ng/mL | 0.1 nM | 0.78 nM | 2.15 nM | 0.24 nM | – | – | – | – | – | – | 2.46 nM | 0.93 nM | – | – | – |
| CCN(c1cc(N2CCc3ccccc3C2)cc(C(=O)NCc2c(C)cc(C)[nH]c2=O)c1C)C1CCOCC1 [Compound 16, 5-(3,4-dihydroisoquinoline-2(1H)-yl)-N-((4,6-dimethyl-2-oxo-1,2-dihydropyridin-3-yl)methyl)-3-(ethyl(tetrahydro-2H-pyran-4-yl)amino)-2-methylbenzamide] | 24.4% | 975 ng·h/mL | 1.87 h | 1190 ng·h/mL | 433 ng/mL | 0.61 nM | 0.82 nM | 3.34 nM | 0.74 nM | 0.95 nM | – | – | – | – | – | 5.12 nM | 1.87 nM | – | – | – |
| CCN(c1cc(N2Cc3ccc(N4CCOCC4)cc3C2)cc(C(=O)NCc2c(C)cc(C)[nH]c2=O)c1C)C1CCOCC1 [Compound 18, N-((4,6-dimethyl-2-oxo-1,2-dihydropyridin-3-yl)methyl)-3-(ethyl (tetrahydro-2H-pyran-4-yl)amino)-2-methyl-5-(5-morpholinoisoindolin-2-yl) benzamide] | 34.3% | 969 ng·h/mL | 1.57 h | 1660 ng·h/mL | 457 ng/mL | 0.5 nM | 0.71 nM | 2.34 nM | 0.64 nM | 0.8 nM | – | – | – | – | – | 2.89 nM | 1.86 nM | – | – | – |
| CCN(c1cc(N2Cc3cn(C)cc3C2)cc(C(=O)NCc2c(C)cc(C)[nH]c2=O)c1C)C1CCOCC1 [Compound 21, N-((4,6-dimethyl-2-oxo-1,2-dihydropyridin-3-yl)methyl)-3-(ethyl (tetrahydro-2H-pyran-4-yl)amino)-2-methyl-5-(5-methyl-3,5-dihydropyrrolo[3,4-c]pyrrole-2(1H)-yl)benzamide] | 26.8% | 932 ng·h/mL | 1.72 h | 1250 ng·h/mL | 426 ng/mL | – | – | 8.15 nM | – | 0.9 nM | – | 90% | – | – | – | 9.38 nM | 7.16 nM | – | – | – |
